Measurements: publication PMC11189555, “Aryl amino acetamides prevent Plasmodium falciparum ring development via targeting the lipid-transfer protein PfSTART1” (Nature Communications, 2024)

Legend:
[1] = tested on: PF3D7_1351000 (START-domain protein); assay: Solvent-PISA (solvent proteome profiling, DIA-MS); assay type: binding, Plasmodium falciparum; settings: 100 µM W-991 vs DMSO; Fig S4E
Experimental: (§1) The experiment was carried out in three biological replicates. Saponin-liberated mature parasite stages (30-42 hpi) were resuspended in PBS and lysed by 3x flash freeze/thawing using liquid N2, followed by 10 x mechanical sheering with a 29 G needle-syringe, and soluble protein isolation through ultracentrifugation (100,000 g; 20 min, 4 °C). Protein lysate was exposed to the 100 µM of W-991 or the vehicle control (DMSO) for 3 min and subsequently incubated with varying concentration of the solvent mixture ‘AEF’ (50% Acetone, 50% Ethanol, 0.1% Formate) to a final concentration of 7-25% (v/v) with 2% intervals, for 20 min at 37 °C at 800 rpm on a Thermomixer (Eppendorf). Denatured protein was pelleted through centrifugation (4 °C, 18,000 g, 20 min), and the soluble phase was recovered and pulled together in equivolume ratios into two samples; Gradient 1 ‘G1’: 7-15% EAF and Gradient 2 ‘G2’: 17-25% EAF, respectively.
(§2) Sample preparation for proteomic analysis was carried out using modified SP4 glass beads protocol. In brief, protein was reduced (20 mM TCEP, 100 mM TEAB) for 20 min at 55 °C and alkylated with 55 mM 2-Chloroacetamide for 30 min, followed by precipitation on beads in 80% ACN with a 6 min centrifugation at 21,000 g and 3 x wash with 80% Ethanol. Dried beads were subjected to sequential digestion with LysC (3 h, 1:50 ratio w/w) and trypsin (overnight, 1:50 ratio w/w), and the resulting digest was acidified with 1% TFA and desalted on T3 C18 stage tips (Affinisep) according to manufacturer’s specifications.
(§3) Peptide samples were analysed on Orbitrap Eclipse Tribrid mass spectrometer that is interfaced with the Neo Vanquish liquid chromatography system. Samples were loaded onto a C18 fused silica column (inner diameter 75 µm, OD 360 µm × 15 cm length, 1.6 µm C18 beads) packed into an emitter tip (IonOpticks) using pressure-controlled loading with a maximum pressure of 1,500 bar, that is interfaced to the mass spectrometer using Easy nLC source and electro sprayed directly into the mass spectrometer. Sample separation was carried out on a linear gradient 5% to 17% of solvent-B at 400 nL /min flow rate (solvent-B: 80% (by vol) acetonitrile) for 23 min and 17% to 25% solvent-B for 10 min, 25% to 34% for 11 min and 34% to 90% solvent-B for 1 min which was maintained at 90% B for 3 min and washed the column at 2% solvent-B for another 3 min comprising a total of 63 min run with a 45 min gradient in a data independent acquisition (DIA) mode MS scan parameters included a full scan using an orbitrap and 120,000 resolution, standard AGC target and maximum injection time of 30 ms. A second DIA experiment used the orbitrap at […] resolution, a precursor scan range of 200-1200 m/z with a normalized AGC target of 3000% and 45 variable isolation windows. Peptides were isolated and fragmented using stepped […] (HCD) at 24%, 28% and 32% normalized collision energy. Peptide identification was carried out in DIA-NN 1.8.1 using standard settings and an in silico spectral library generated from Uniprot P. falciparum (UP000001450) and human (UP000005640) reference proteomes. The peptide length range was set to 7-30 amino acids. […] Subsequently, the differential abundance analysis (moderated t-test, based on limma package[81]) of P. falciparum proteins was conducted in the R environment (R version 4.2.0; R Studio Version 2023.12.1 + 402) using precursor normalised MaxLFQ data for proteins detected with ≥2 peptides. […]

[2] = tested on: merozoites-associated armadillo repeats protein (MAAP, PF3D7_1035900); assay: Solvent-PISA (solvent proteome profiling, DIA-MS); assay type: binding, Plasmodium falciparum; settings: 100 µM W-991 vs DMSO; 7-25% AEF
Experimental: as §1, §2, §3

[3] = tested on: ring-infected erythrocyte surface antigen (RESA3, PF3D7_1149200); assay: Solvent-PISA (solvent proteome profiling, DIA-MS); assay type: binding, Plasmodium falciparum; settings: 100 µM W-991 vs DMSO; 7-25% AEF
Experimental: as §1, §2, §3

[4] = tested on: PF3D7_1463500 (START-domain protein); assay: Solvent-PISA (solvent proteome profiling, DIA-MS); assay type: binding, Plasmodium falciparum; settings: 100 µM W-991 vs DMSO; Fig S4E
Experimental: as §1, §2, §3

ring-stage parasites = assay: Parasite reduction ratio assay; assay type: cell-based, Plasmodium falciparum
Experimental: Parasite reduction ratio assay. This was performed as previously described 9,10.
Briefly, asynchronous ring -stage parasites at 0.5% parasitemia and 2% haematocrit were exposed to compounds at 10 x EC50 of growth for five days with daily drug renewal. After each 24 h, a well from each treatment group was taken and washed three times in complete RPMI and final volume adjusted to 2% haematocrit. The washed culture was then aliquoted into a 96 well U-bottom plate and a 1:3 serial dilution into fresh uninfected RBCs was performed with four technical replicates for each time point. Plates were maintained in normal culturing conditions: media was replaced, and fresh RBCs given 1-2 times a week for three weeks, after which parasite growth was measured via lactate dehydrogenase assays. The number of viable parasites was calculated using the formula xn-1 +1, where x is the dilution factor and n is the number of wells that contain parasite growth. The viable parasite value was then expressed in log units and parasite reduction ratio was calculated as a decrease in […]

## CC(C)(Nc1ccc(Cl)c(S(=O)(=O)N2CCOCC2)c1)C(=O)Nc1ccc(F)c(Cl)c1 [W-991]
[1]
  abundance/stability of the protein on compound treatment: not affected
[2]
  soluble protein level in the presence of compound (stabilisation): drug-stabilised
[3]
  soluble protein level in the presence of compound (stabilisation): drug-stabilised
[4]
  abundance/stability of the protein on compound treatment: not affected
ring-stage parasites; 60 nM W-991, lag phases 0-24 h, 48-96 h
  lag phases: more than 24 h
ring-stage parasites; 10 x EC50 (60 nM W-991) for up to 5 days, then 21 days culture
  viable parasites after treatment: a proportion of parasites remained after a treatment period of 5 days
ring-stage parasites; 10xEC50: 75 nM CQ, 60 nM W-991
  killing profile: slow
ring-stage parasites; Replicate 1, 24 Hours
  PRR calculations: log viability at Hours 24: 4.771
ring-stage parasites; Replicate 1, 72 Hours
  PRR calculations: log viability at Hours 72: 3.34
ring-stage parasites; Replicate 1, PRR calculations
  PRR: 1.431
ring-stage parasites; Replicate 1, T=1
  log(parasite viability) +1: 4.771
ring-stage parasites; Replicate 1, T=1, 1:3 dilution
  Parasite viability: 59049
ring-stage parasites; Replicate 1, T=2
  log(parasite viability) +1: 3.34
ring-stage parasites; Replicate 1, T=2, 1:3 dilution
  Parasite viability: 2187
ring-stage parasites; Replicate 1, T=3
  log(parasite viability) +1: 3.34
ring-stage parasites; Replicate 1, T=3, 1:3 dilution
  Parasite viability: 2187
ring-stage parasites; Replicate 1, T=4
  log(parasite viability) +1: 3.34
ring-stage parasites; Replicate 1, T=4, 1:3 dilution
  Parasite viability: 2187
ring-stage parasites; Replicate 1, T=5
  log(parasite viability) +1: 2.863
ring-stage parasites; Replicate 1, T=5, 1:3 dilution
  Parasite viability: 729
ring-stage parasites; Replicate 2, Hours 72
  log(parasite viability) +1 used in PRR calculations: 3.34
ring-stage parasites; Replicate 2, Hours 120
  log(parasite viability) +1 used in PRR calculations: 1.914
ring-stage parasites; Replicate 2, PRR calculations
  PRR: 1.426
ring-stage parasites; Replicate 2, T=1
  Parasite viability +1: 177148
  log(parasite viability) +1: 5.248
ring-stage parasites; Replicate 2, T=1, 1:3 dilution
  Parasite viability: 177147
ring-stage parasites; Replicate 2, T=2
  Parasite viability +1: 2188
  log(parasite viability) +1: 3.34
ring-stage parasites; Replicate 2, T=2, 1:3 dilution
  Parasite viability: 2187
ring-stage parasites; Replicate 2, T=3
  Parasite viability +1: 2188
  log(parasite viability) +1: 3.34
ring-stage parasites; Replicate 2, T=3, 1:3 dilution
  Parasite viability: 2187
ring-stage parasites; Replicate 2, T=4
  Parasite viability +1: 2188
  log(parasite viability) +1: 3.34
ring-stage parasites; Replicate 2, T=4, 1:3 dilution
  Parasite viability: 2187
ring-stage parasites; Replicate 2, T=5
  Parasite viability +1: 82
  log(parasite viability) +1: 1.914
ring-stage parasites; Replicate 2, T=5, 1:3 dilution
  Parasite viability: 81
ring-stage parasites; replicate 3, T=1
  Parasite viability (1:3 dilution): 177147
  log(parasite viability) +1: 5.248
ring-stage parasites; replicate 3, T=2
  Parasite viability (1:3 dilution): 2187
ring-stage parasites; replicate 3, T=2 (48 hours in PRR calculations)
  log(parasite viability) +1: 3.34
ring-stage parasites; replicate 3, T=3
  Parasite viability (1:3 dilution): 729
ring-stage parasites; replicate 3, T=3 (72 hours in PRR calculations)
  log(parasite viability) +1: 2.863
ring-stage parasites; replicate 3, T=4
  Parasite viability (1:3 dilution): 19683
  log(parasite viability) +1: 4.294
ring-stage parasites; replicate 3, T=5
  Parasite viability (1:3 dilution): 81
ring-stage parasites; replicate 3, T=5 (120 hours in PRR calculations)
  log(parasite viability) +1: 1.914
ring-stage parasites; replicate 3, difference of log viability over 48 h (CQ 0-48 hours, W991 72-120 hours)
  PRR: 0.9495
